Tests used:
Format in all cases: cell-based
[1] = system: Streptococcus mutans UA159; test: Growth inhibition assay, S. mutans (colony counts normalized to pH-matched BHI); conditions: 1% (w/v) or 10% (w/v) sugar alcohol alone, pH 6.5, 7.5 or 8.5
[2] = system: Solobacterium moorei DSM 22971; test: Growth inhibition assay, S. moorei (colony counts normalized to pH-matched Schaedler's broth)
Experimental: Solobacterium moorei DSM 22971 and Porphyromonas gingivalis ATCC 33277 were grown in Schaedler's broth (Himedia) or Brucella blood agar with hemin and vitamin K (Hardy Diagnostics) under anaerobic conditions at 37° C. Anaerobic conditions were maintained using the Anaerogen atmosphere generation system (Oxoid). Streptococcus mutans UA159 were grown in Brain Heart Infusion (BHI; Hardy Diagnostics) under 5% CO2 at 37° C. Various concentrations of xylitol (Acros Organics), erythritol (Acros Organics) and/or polyphenon 60 (Sigma) were dissolved in Schaedler's broth or BHI broth. […] The mixtures were pH adjusted using either hydrochloric acid or sodium hydroxide to a final pH of 6.5±0.1, 7.5±0.1 or 8.5±0.1. All test products were filter-sterilized after pH adjustment. […] After 48 h of incubation, various dilutions of the cells were spotted into Brucella blood agar with hem in and vitamin K, and incubated for 48 h for S. moorei, and for 72 h for P. gingivalis. Cell counts were normalized against growth in Schaedler's broth adjusted to their respective testing pH. […] The percent inhibition was measured by normalizing the results against S. moorei grown in media with the corresponding pH adjustment. […] The percent survival was measured by normalizing the results against S. moorei grown in media with the corresponding pH adjustment. […] The percent inhibition was measured by normalizing the results against S. moorei grown in media with the corresponding pH adjustment. An upper limit of 0.1 mg/mL polyphenon 60 was used in order to be able to assess the pH effects.

[3] = system: Porphyromonas gingivalis ATCC 33277; test: Growth inhibition assay, P. gingivalis (colony counts normalized to pH-matched Schaedler's broth)
Experimental: Solobacterium moorei DSM 22971 and Porphyromonas gingivalis ATCC 33277 were grown in Schaedler's broth (Himedia) or Brucella blood agar with hemin and vitamin K (Hardy Diagnostics) under anaerobic conditions at 37° C. Anaerobic conditions were maintained using the Anaerogen atmosphere generation system (Oxoid). Streptococcus mutans UA159 were grown in Brain Heart Infusion (BHI; Hardy Diagnostics) under 5% CO2 at 37° C. Various concentrations of xylitol (Acros Organics), erythritol (Acros Organics) and/or polyphenon 60 (Sigma) were dissolved in Schaedler's broth or BHI broth. […] The mixtures were pH adjusted using either hydrochloric acid or sodium hydroxide to a final pH of 6.5±0.1, 7.5±0.1 or 8.5±0.1. All test products were filter-sterilized after pH adjustment. […] After 48 h of incubation, various dilutions of the cells were spotted into Brucella blood agar with hem in and vitamin K, and incubated for 48 h for S. moorei, and for 72 h for P. gingivalis. Cell counts were normalized against growth in Schaedler's broth adjusted to their respective testing pH. […] The percent inhibition was measured by normalizing the results against P. gingivalis grown in media with the corresponding pH adjustment. […] The percent inhibition was measured by normalizing the results against P. gingivalis grown in media with the corresponding pH adjustment.

[4] = 10% sugar alcohol alone, pH 6.5
[5] = 10% sugar alcohol alone, pH 7.5
[6] = 10% sugar alcohol alone, pH 8.5

Structure (SMILES)	inhibitory activity on growth of S. mutans [1]	S. moorei survival [2, 4] [%]	S. moorei survival [2, 5] [%]	S. moorei survival [2, 6] [%]	inhibition of S. moorei growth ([2]; on its own at varying concentrations, any pH)	Survival of P. gingivalis ([3]; 1% sugar alcohol alone, pH 6.5) [%]	Survival of P. gingivalis ([3]; 1% sugar alcohol alone, pH 7.5) [%]	Survival of P. gingivalis [3, 4] [%]	Survival of P. gingivalis [3, 5] [%]	Survival of P. gingivalis [3, 6] [%]	S. moorei survival ([2]; 1% sugar alcohol alone, pH 6.5) [%]	S. moorei survival ([2]; 1% sugar alcohol alone, pH 7.5) [%]	S. moorei survival ([2]; 1% sugar alcohol alone, pH 8.5) [%]	Survival of P. gingivalis ([3]; 1% sugar alcohol alone, pH 8.5) [%]
OC[C@@H](O)[C@@H](O)CO [erythritol]	inhibit growth	140.4	156.9	162.0	did not inhibit	92.1	75.4	41.1	19.9	13.6				
OC[C@@H](O)[C@H](O)[C@@H](O)CO [xylitol]	had inhibitory activity	52.6	53.6	26.8		69.8	63.2	14.3	8.9	7.4	52.0	53.3	17.3	60.0

Reference: patent publication US11382850B2, “Compositions and methods for inhibiting growth of caries-, gingivitis- and halitosis-causing bacteria” (DoseBiome Inc., priority 2019, dated 2022)
